The values below come from patent US11618746B2, “Inhibitors of APOL1 and methods of using same” (Vertex Pharmaceuticals Incorporated, priority 2018, dated 2023).

The target of the assay is T1, G1 APOL1 (Homo sapiens, UniProt O14791, I384M/S342G).
T1 construct: expressed in transfected cells
T1 sequence (O14791 28-398 S342G/I384M): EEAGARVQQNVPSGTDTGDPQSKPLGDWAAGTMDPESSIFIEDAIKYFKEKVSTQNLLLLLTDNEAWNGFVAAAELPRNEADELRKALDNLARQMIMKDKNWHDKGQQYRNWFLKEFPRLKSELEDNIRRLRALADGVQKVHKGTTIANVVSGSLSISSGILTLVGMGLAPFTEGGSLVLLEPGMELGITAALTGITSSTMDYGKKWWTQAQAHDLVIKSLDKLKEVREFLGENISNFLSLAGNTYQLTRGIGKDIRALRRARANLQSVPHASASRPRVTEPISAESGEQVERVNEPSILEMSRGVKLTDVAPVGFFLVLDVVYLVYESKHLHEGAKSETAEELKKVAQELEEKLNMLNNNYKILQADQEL
Kind of assay: Acute APOL1 Thallium Assay with inducible stable clones of HEK 293 cells. The format is cell-based. As to conditions: HEK T-Rex tetracycline-inducible cells expressing G1 APOL1 (clone G1 DC3.25); inhibition of thallium flux rate. The text has this:
Acute APOL1 Thallium Assay with Inducible Stable Clones of HEK 293 Cells
Apolipoprotein L1 (APOL1) proteins form potassium-permeable cation pores in the plasma membrane. APOL1 risk variants (G1 and G2) induce greater potassium flux than G0 in HEK293 cells. This assay exploits the permeability of thallium (T1+) through ligand-gated potassium channels. The dye produces a bright fluorescent signal upon binding to T1+ conducted through potassium channels. The intensity of the T1+ signal is proportional to the number of potassium channels in the open state. Therefore, it provides a functional indication of the potassium channel activities. During the initial dye-loading step, the T1+ indicator dye as an acetoxymethyl (AM) ester enters the cells through passive diffusion. Cytoplasm esterases cleave the AM ester and relieve its active thallium-sensitive form. The cells are then stimulated with T1+. The increase of fluorescence in the assay represents the influx of T1+ into the cell specifically through the potassium channel (i.e. through APOL1 pores), providing a functional measurement of potassium channel/pore activity. The Thallium assay is conducted with cells expressing G1 APOL1.
APOL1 Cell Line (HEK T-Rex Stable Inducible Cell Line) • HEK T-Rex System • Tetracycline (Tet) inducible mammalian expression system. • Stably express the Tet repressor to regulate transcription. • Expression under the full-length CMV promoter. • APOL1 stable inducible cell line Clone used: G1 DC3.25
Tissue Culture Media • Cell Culture Medium • DMEM +10% FBS +P/S +5 μg/mL blasticidin+1 μg/mL puromycin. • 500 mL DMEM +55 mL FBS +5 mL P/S +280 μL blasticidin S HCl (10 mg/mL)+56 μL puromycin (10 mg/mL). • Cell Assay Medium • DMEM with 2% FBS+pen strep.
Instruments and Equipment • Nuaire cell culture hood, Cat. No. 540-600 • 37° C./5% CO2 incubator link to robotic arm, Liconic: STX110 • Molecular Devices FLIPR^Tetra High throughput cellular screening system, Cat. No. FT0324, Molecular Devices • ThermoFisher MultiDrop 384, Cat. No. 5840300 • Biotek Microfill, Cat. No. ASF1000A-4145 • BioRad TC10 cell counter, Cat. No. 145-0010 Assay Procedures
Cells Scaled Up from Frozen Vials • APOL1 G1 3.25 (HEK293 T-Rex) frozen vials: 5 million cells per vial • Step 1, Day 1: Defrost frozen vial into T-225. • Step 2, Day 5: (when 85% confluent): Split one T-225 at 3×10^6 cells per flask. • Step 3, Day 8: Splits cells to set up for the assay plates as described below.
T-Rex APOL1 HEK cells are split twice per week to keep the confluence state below 85% of the culture flask surface area. Cells can be kept until passage 25. • Cell Culture Medium • DMEM high glucose +10% FBS, +P/S, +5 μg/mL blasticidin, +1 μg/mL puromycin. • 500 mL DMEM, +55 mL FBS, +5 mL P/S, +280 μL blasicidin 10 mg/mL, +56 μL Puromycin 10 mg/mL. • Assay Media • Opti-MEM reduced serum medium from Invitrogen.
Preparation of Cell Assay Plates • Culture medium is removed from the x cm^2 T-flask by aspiration. • The cell monolayer is rinsed with PBS 1× at room temperature. PBS is removed by aspiration. • Cells are trypsinized using Trypsin. • The flasks are incubated at room temperature for 2-3 minutes. • Complete DMEM medium is then added. Cell suspension is then transferred to a 50 mL Falcon polypropylene tube. • Cells are then counted using a Biorad TC10 cell counter and the required amount of cells are centrifuged at 1200 RPM for 5 minutes. Required amount is 1.3×10^6 cells/mL APOL1 T-Rex HEK cells. • The pellet is suspended in the assay medium. • Using the MultiDrop, add 20 μL to each well (corresponds to 26000 cells total per well) of a 384-well black, transparent, flat bottom Poly-D coated plate. • Tetracycline as prepared in the following section is added to the cells before plating to induce APOL1 expression. • Plates are left at room temperature for 20 to 30 minutes before incubation at 37° C. and 5% CO2. […]
On to `CC1C[C@H](NC(=O)CCc2c(-c3ccc(F)cc3)[nH]c3c(F)cc(F)cc23)C(=O)N1` (mixture of isomers) [Compound 6], for which the IC50 lay in the range of 250 to 1000 nM.

`CC1(NC(=O)CCc2c(-c3ccc(F)cc3)[nH]c3c(F)cc(F)cc23)CCNC1=O` (racemic) [Compound 14] registered a concentration for half-maximal inhibition (IC50) of 250 to 1000 nM.

In the case of `O=C(CCc1c(-c2ccc(F)cc2)[nH]c2c(F)cc(F)cc12)N[C@H]1CCNC1=O` [Compound 3, 3-[5,7-difluoro-2-(4-fluorophenyl)-1H-indol-3-yl]-N-[(3S)-2-oxopyrrolidin-3-yl]propanamide], the IC50 is < 250 nM.

`O=C1C[C@H](NC(=O)CCc2c(-c3ccc(F)cc3)[nH]c3c(F)cc(F)cc23)C(=O)N1` [Compound 5] came in with an IC50 of 250 to 1000 nM.

As for `O=C(CCc1c(-c2ccc(F)cc2)[nH]c2c(F)cc(F)cc12)N[C@H]1C[C@@H](CO)NC1=O` [Compound 7], the IC50 is > 1000 nM.

On to `O=C(CCc1c(-c2ccc(F)cc2)[nH]c2c(F)cc(F)cc12)N[C@H]1C[C@H](CO)NC1=O` [Compound 8], for which the IC50 is > 1000 nM.

In turn, `O=C(CCc1c(-c2ccc(F)cc2)[nH]c2c(F)cc(F)cc12)N[C@@H]1CCNC1=O` [Compound 13] showed an IC50 of 250 to 1000 nM.

The compound `O=C1C[C@@H](NC(=O)CCc2c(-c3ccc(F)cc3)[nH]c3c(F)cc(F)cc23)C(=O)N1` [Compound 16] gave a half-inhibitory concentration (IC50) of 250 to 1000 nM.

As to `N#Cc1ccc(-c2[nH]c3c(F)cc(F)cc3c2CCC(=O)N[C@H]2CCNC2=O)cc1` [Compound 20, 3-[2-(4-cyanophenyl)-5,7-difluoro-1H-indol-3-yl]-N-[(3S)-2-oxopyrrolidin-3-yl]propanamide], the IC50 is < 250 nM.

As for `O=C(CCc1c(-c2ccc(OC(F)F)cc2)[nH]c2c(F)cc(F)cc12)N[C@H]1CCNC1=O` [Compound 21], the half-maximal inhibitory concentration (IC50) was < 250 nM.

For `O=C(CCc1c(-c2ccccc2)[nH]c2c(F)cc(F)cc12)N[C@@H]1C(=O)NC[C@H]1O` [Compound 26], the IC50 was < 250 nM.

Turning to `O=C(CCc1c(-c2ccc(F)cc2)[nH]c2c(F)cc(Br)cc12)N[C@H]1CCNC1=O` [Compound 27], the half-inhibitory concentration (IC50) is < 250 nM.

As to `N#Cc1cc(F)c2[nH]c(-c3ccc(F)cc3)c(CCC(=O)N[C@H]3CCNC3=O)c2c1` [Compound 28], the 50% inhibitory concentration (IC50) is > 1000 nM.

As to `Cc1cc(F)c2[nH]c(-c3ccc(F)cc3)c(CCC(=O)N[C@@H]3C(=O)NC[C@H]3O)c2c1` [Compound 29], the IC50 is < 250 nM.

For `O=C(CCc1c(-c2ccc(F)cc2)[nH]c2c(F)cc(Cl)cc12)N[C@@H]1C(=O)NC[C@H]1O` [Compound 30], the IC50 is < 250 nM.

Consider `O=C(CCc1c(-c2ccc(F)cc2)[nH]c2c(Cl)cc(F)cc12)N[C@@H]1C(=O)NC[C@H]1O` [Compound 36], for which the half-maximal inhibitory concentration (IC50) is < 250 nM.

Turning to `Cc1cc(F)cc2c(CCC(=O)N[C@@H]3C(=O)NC[C@H]3O)c(-c3ccc(F)cc3)[nH]c12` [Compound 37], the concentration for half-maximal inhibition (IC50) is < 250 nM.

With `COc1cc(F)cc2c(CCC(=O)N[C@@H]3C(=O)NC[C@H]3O)c(-c3ccc(F)cc3)[nH]c12` [Compound 40], the half-inhibitory concentration (IC50) was < 250 nM.

Consider `N#Cc1cc(F)cc2c(CCC(=O)N[C@@H]3C(=O)NC[C@H]3O)c(-c3ccc(F)cc3)[nH]c12` [Compound 42], for which the 50% inhibitory concentration (IC50) was < 250 nM.

For the compound `Cc1ccc2[nH]c(-c3ccc(Br)cc3)c(CCC(=O)N[C@H]3CCNC3=O)c2c1` [Compound 43, 3-[2-(4-bromophenyl)-5-methyl-1H-indol-3-yl]-N-[(3S)-2-oxopyrrolidin-3-yl]propanamide], the IC50 was < 250 nM.

As for `O=C(CCc1c(-c2ccccc2)[nH]c2ccc(Cl)cc12)N[C@@H]1C(=O)NC[C@H]1O` [Compound 44, 3-(5-chloro-2-phenyl-1H-indol-3-yl)-N-[(3S,4R)-4-hydroxy-2-oxo-pyrrolidin-3-yl]propanamide], the concentration for half-maximal inhibition (IC50) was < 250 nM.

In the case of `O=C(CCc1c(-c2ccc(F)cc2)[nH]c2ccc(F)cc12)N[C@@H]1C(=O)NC[C@H]1O` [Compound 46], the IC50 was < 250 nM.

Regarding `O=C(CCc1c(-c2ccc(F)cc2)[nH]c2ccc(F)cc12)N[C@H]1CCNC1=O` [Compound 47], the IC50 was < 250 nM.

Turning to `O=C(CCc1c(-c2ccc(F)cc2)[nH]c2ccc(F)cc12)NC1CCNC1=O` (stereo not drawn) [Compound 48], the IC50 was < 250 nM.

Consider `O=C(CCc1c(-c2ccc(F)cc2)[nH]c2ccc(F)cc12)N[C@@H]1CCNC1=O` [Compound 49], for which the IC50 was 250 to 1000 nM.

`CN(C(=O)CCc1c(-c2ccc(F)cc2)[nH]c2ccc(F)cc12)C1CCNC1=O` (stereo not drawn) [Compound 50] came in with a half-inhibitory concentration (IC50) of 250 to 1000 nM.

For `O=C(CCc1c(-c2ccccc2)[nH]c2ccc(F)cc12)N[C@@H]1C(=O)NC[C@H]1O` [Compound 51], the concentration for half-maximal inhibition (IC50) was < 250 nM.

Consider `O=C(CCc1c(-c2ccccc2)[nH]c2ccc(F)cc12)N[C@H]1CCNC1=O` [Compound 52], for which the concentration for half-maximal inhibition (IC50) was < 250 nM.

As to `O=C(CCc1c(-c2ccc(F)cc2)[nH]c2ccc(OCc3ccccc3)cc12)N[C@H]1CCNC1=O` [Compound 54, 3-[5-benzyloxy-2-(4-fluorophenyl)-1H-indol-3-yl]-N-[(3S)-2-oxopyrrolidin-3-yl]propanamide], the concentration for half-maximal inhibition (IC50) is 250 to 1000 nM.

As for `O=C(CCc1c(-c2ccc(F)cc2)[nH]c2ccc(O)cc12)N[C@H]1CCNC1=O` [Compound 55, 3-[2-(4-fluorophenyl)-5-hydroxy-1H-indol-3-yl]-N-[(3S)-2-oxopyrrolidin-3-yl]propanamide], the IC50 was > 1000 nM.

With `O=C(CCc1c(-c2ccc(F)cc2)[nH]c2c(F)c(F)ccc12)N[C@@H]1C(=O)NC[C@H]1O` [Compound 58], the IC50 was < 250 nM.

In the case of `O=C(CCc1c(-c2ccccc2)[nH]c2c(F)c(F)ccc12)N[C@@H]1C(=O)NC[C@H]1O` [Compound 59], the concentration for half-maximal inhibition (IC50) was < 250 nM.

As to `O=C(CCc1c(-c2ccccc2)[nH]c2c(F)cccc12)N[C@@H]1C(=O)NC[C@H]1O` [Compound 61], the IC50 is < 250 nM.

Regarding `O=C(CCc1c(-c2ccccc2)[nH]c2c(Br)cccc12)N[C@@H]1C(=O)NC[C@H]1O` [Compound 70], the IC50 is < 250 nM.

Take `O=C(CCc1c(-c2ccc(F)cc2)[nH]c2c(Cl)cccc12)N[C@H]1CCNC1=O` [Compound 72]: the IC50 is < 250 nM.

On to `O=C(CCc1c(-c2ccc(F)cc2)[nH]c2c(Cl)cccc12)N[C@@H]1C(=O)NC[C@H]1O` [Compound 73], for which the IC50 is < 250 nM.

`O=C(CCc1c(-c2ccc(F)cc2)[nH]c2c(F)cccc12)N[C@H]1CCNC1=O` [Compound 75]: the IC50 was < 250 nM.

As for `O=C(CCc1c(-c2ccc(F)cc2)[nH]c2c(F)cccc12)N[C@@H]1C(=O)NC[C@H]1O` [Compound 76], the half-inhibitory concentration (IC50) was < 250 nM.

For `O=C(CCc1c(-c2ccc(F)cc2)[nH]c2c(F)ccc(F)c12)N[C@H]1CCNC1=O` [Compound 78], the half-maximal inhibitory concentration (IC50) was > 1000 nM.
